Source: ChEMBL document CHEMBL5649166, “RIP3 induces apoptosis independent of pronecrotic kinase activity” (Mol Cell, 2014)

Assays:
[1] = target: Serine/threonine-protein kinase 16 (Homo sapiens) (UniProt O75716); assay: Inhibition of human STK16 using myelin basic protein as substrate at 1 uM in presence of 32P-ATP by Hotspot assay relative to control; values are per cent of control
[2] = target: CDK3/Cyclin E (Homo sapiens) (UniProt P24864+Q00526); assay: Inhibition of human CDK3/cyclin E using RB Protein as substrate at 1 uM in presence of 32P-ATP by Hotspot assay relative to control; values are per cent of control
Chain of CDK3/Cyclin E (Homo sapiens) (P24864 whole entry, looked up): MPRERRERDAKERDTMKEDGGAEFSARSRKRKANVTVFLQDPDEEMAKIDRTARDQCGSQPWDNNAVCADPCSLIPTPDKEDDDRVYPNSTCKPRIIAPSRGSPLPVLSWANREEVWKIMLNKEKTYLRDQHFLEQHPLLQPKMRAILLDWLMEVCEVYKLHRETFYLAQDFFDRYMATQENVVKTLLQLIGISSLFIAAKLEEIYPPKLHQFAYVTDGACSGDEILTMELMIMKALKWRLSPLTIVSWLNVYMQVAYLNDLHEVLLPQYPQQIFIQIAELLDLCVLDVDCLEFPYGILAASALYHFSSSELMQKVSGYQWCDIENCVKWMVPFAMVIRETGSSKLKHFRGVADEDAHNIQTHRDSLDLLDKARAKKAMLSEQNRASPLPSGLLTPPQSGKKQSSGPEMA
Chain of CDK3/Cyclin E (Homo sapiens) (Q00526 whole entry, looked up): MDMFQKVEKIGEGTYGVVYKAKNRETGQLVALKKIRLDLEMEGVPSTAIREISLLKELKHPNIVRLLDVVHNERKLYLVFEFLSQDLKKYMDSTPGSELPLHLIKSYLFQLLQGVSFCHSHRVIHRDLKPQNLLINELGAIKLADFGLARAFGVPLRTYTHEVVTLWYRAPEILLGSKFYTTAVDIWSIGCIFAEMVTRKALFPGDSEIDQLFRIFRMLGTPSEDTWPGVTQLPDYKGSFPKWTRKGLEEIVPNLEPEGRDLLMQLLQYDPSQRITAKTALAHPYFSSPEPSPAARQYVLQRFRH

[3] = target: CDK9/Cyclin K (Homo sapiens) (UniProt P50750+O75909); assay: Inhibition of human CDK9/cyclin K using KTFCGTPEYLAPEVRREPRILSEEEQEMFRDFDYIADWC as substrate at 1 uM in presence of 32P-ATP by Hotspot assay relative to control; values are per cent of control
[4] = target: Fibroblast growth factor receptor 4 (Homo sapiens) (UniProt P22455); assay: Inhibition of human FGFR4 using poly[Glu:Tyr] (4:1) as substrate at 1 uM in presence of 32P-ATP by Hotspot assay relative to control; values are per cent of control
[5] = target: Wee1-like protein kinase (Homo sapiens) (UniProt P30291); assay: Inhibition of human WEE1 using CDK1 (D146N)/cyclin B1 as substrate at 1 uM in presence of 32P-ATP by Hotspot assay relative to control; values are per cent of control
Chain of Wee1-like protein kinase (Homo sapiens) (P30291 whole entry, looked up): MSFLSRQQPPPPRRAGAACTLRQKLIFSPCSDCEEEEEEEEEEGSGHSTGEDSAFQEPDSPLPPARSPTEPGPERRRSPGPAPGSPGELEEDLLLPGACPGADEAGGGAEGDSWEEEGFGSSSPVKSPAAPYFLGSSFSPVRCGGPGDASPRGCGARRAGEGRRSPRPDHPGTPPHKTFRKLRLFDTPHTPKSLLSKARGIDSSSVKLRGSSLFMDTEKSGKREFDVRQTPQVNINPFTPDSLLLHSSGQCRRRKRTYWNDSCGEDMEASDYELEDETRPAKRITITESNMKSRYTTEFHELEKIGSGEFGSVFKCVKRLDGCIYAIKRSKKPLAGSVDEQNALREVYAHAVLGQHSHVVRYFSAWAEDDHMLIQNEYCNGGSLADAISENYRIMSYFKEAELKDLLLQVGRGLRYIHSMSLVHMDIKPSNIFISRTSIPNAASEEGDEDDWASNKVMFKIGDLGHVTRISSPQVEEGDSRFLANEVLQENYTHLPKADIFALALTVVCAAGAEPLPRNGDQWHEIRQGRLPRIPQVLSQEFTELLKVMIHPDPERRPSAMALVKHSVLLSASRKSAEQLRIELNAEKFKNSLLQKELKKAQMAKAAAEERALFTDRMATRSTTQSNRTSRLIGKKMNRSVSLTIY

[6] = target: Serine/threonine-protein kinase 26 (Homo sapiens) (UniProt Q9P289); assay: Inhibition of human MST4 using myelin basic protein as substrate at 1 uM in presence of 32P-ATP by Hotspot assay relative to control; values are per cent of control
[7] = target: T1, Serine/threonine-protein kinase D3 (Homo sapiens) (UniProt O94806); assay: Inhibition of human PKCnu/PRKD3 using KKLNRTLSVA as substrate at 1 uM in presence of 32P-ATP by Hotspot assay relative to control; values are per cent of control
T1 sequence (whole entry): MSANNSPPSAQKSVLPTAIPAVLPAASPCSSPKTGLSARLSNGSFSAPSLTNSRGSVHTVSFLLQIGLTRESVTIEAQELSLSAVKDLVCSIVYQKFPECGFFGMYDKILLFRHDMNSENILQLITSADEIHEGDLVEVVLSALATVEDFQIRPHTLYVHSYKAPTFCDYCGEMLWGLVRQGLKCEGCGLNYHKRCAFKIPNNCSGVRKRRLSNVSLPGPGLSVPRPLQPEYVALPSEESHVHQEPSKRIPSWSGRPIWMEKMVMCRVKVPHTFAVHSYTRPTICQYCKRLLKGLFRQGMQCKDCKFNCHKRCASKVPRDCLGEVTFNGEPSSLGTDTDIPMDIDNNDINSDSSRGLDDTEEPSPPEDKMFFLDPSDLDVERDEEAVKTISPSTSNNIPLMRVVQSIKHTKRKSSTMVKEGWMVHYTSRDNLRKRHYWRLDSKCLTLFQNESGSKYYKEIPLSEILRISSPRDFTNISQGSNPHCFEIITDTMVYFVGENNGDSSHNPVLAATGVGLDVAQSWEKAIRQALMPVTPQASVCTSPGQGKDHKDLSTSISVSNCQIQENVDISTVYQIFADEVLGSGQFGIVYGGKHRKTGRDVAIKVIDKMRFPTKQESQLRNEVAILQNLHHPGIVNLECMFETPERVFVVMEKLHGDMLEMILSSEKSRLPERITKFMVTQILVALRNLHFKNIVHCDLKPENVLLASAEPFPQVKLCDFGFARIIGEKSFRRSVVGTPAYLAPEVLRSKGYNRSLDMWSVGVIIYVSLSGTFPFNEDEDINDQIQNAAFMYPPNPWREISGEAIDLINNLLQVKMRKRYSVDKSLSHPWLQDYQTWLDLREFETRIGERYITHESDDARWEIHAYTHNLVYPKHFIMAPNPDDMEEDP

[8] = target: T2, Serine/threonine-protein kinase 3 (Homo sapiens) (UniProt Q13188); assay: Inhibition of human MST2/STK3 using myelin basic protein as substrate at 1 uM in presence of 32P-ATP by Hotspot assay relative to control; values are per cent of control
T2 sequence (whole entry): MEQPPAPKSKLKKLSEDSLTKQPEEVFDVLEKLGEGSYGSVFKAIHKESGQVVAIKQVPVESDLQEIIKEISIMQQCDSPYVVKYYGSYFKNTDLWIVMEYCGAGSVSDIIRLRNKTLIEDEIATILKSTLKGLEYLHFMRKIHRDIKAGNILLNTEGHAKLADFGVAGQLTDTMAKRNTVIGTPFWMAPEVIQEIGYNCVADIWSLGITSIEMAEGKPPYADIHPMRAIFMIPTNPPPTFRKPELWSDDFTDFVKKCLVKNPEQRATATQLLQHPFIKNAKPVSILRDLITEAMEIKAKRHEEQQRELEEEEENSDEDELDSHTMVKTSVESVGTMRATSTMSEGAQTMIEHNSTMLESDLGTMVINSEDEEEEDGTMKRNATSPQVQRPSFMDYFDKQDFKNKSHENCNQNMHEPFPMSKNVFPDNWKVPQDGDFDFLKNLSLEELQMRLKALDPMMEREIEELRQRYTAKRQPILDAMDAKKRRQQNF

[9] = target: Serine/threonine-protein kinase WNK2 (Homo sapiens) (UniProt Q9Y3S1); assay: Inhibition of human WNK2 using myelin basic protein as substrate at 1 uM in presence of 32P-ATP by Hotspot assay relative to control; values are per cent of control
Chain of Serine/threonine-protein kinase WNK2 (Homo sapiens) (Q9Y3S1 whole entry): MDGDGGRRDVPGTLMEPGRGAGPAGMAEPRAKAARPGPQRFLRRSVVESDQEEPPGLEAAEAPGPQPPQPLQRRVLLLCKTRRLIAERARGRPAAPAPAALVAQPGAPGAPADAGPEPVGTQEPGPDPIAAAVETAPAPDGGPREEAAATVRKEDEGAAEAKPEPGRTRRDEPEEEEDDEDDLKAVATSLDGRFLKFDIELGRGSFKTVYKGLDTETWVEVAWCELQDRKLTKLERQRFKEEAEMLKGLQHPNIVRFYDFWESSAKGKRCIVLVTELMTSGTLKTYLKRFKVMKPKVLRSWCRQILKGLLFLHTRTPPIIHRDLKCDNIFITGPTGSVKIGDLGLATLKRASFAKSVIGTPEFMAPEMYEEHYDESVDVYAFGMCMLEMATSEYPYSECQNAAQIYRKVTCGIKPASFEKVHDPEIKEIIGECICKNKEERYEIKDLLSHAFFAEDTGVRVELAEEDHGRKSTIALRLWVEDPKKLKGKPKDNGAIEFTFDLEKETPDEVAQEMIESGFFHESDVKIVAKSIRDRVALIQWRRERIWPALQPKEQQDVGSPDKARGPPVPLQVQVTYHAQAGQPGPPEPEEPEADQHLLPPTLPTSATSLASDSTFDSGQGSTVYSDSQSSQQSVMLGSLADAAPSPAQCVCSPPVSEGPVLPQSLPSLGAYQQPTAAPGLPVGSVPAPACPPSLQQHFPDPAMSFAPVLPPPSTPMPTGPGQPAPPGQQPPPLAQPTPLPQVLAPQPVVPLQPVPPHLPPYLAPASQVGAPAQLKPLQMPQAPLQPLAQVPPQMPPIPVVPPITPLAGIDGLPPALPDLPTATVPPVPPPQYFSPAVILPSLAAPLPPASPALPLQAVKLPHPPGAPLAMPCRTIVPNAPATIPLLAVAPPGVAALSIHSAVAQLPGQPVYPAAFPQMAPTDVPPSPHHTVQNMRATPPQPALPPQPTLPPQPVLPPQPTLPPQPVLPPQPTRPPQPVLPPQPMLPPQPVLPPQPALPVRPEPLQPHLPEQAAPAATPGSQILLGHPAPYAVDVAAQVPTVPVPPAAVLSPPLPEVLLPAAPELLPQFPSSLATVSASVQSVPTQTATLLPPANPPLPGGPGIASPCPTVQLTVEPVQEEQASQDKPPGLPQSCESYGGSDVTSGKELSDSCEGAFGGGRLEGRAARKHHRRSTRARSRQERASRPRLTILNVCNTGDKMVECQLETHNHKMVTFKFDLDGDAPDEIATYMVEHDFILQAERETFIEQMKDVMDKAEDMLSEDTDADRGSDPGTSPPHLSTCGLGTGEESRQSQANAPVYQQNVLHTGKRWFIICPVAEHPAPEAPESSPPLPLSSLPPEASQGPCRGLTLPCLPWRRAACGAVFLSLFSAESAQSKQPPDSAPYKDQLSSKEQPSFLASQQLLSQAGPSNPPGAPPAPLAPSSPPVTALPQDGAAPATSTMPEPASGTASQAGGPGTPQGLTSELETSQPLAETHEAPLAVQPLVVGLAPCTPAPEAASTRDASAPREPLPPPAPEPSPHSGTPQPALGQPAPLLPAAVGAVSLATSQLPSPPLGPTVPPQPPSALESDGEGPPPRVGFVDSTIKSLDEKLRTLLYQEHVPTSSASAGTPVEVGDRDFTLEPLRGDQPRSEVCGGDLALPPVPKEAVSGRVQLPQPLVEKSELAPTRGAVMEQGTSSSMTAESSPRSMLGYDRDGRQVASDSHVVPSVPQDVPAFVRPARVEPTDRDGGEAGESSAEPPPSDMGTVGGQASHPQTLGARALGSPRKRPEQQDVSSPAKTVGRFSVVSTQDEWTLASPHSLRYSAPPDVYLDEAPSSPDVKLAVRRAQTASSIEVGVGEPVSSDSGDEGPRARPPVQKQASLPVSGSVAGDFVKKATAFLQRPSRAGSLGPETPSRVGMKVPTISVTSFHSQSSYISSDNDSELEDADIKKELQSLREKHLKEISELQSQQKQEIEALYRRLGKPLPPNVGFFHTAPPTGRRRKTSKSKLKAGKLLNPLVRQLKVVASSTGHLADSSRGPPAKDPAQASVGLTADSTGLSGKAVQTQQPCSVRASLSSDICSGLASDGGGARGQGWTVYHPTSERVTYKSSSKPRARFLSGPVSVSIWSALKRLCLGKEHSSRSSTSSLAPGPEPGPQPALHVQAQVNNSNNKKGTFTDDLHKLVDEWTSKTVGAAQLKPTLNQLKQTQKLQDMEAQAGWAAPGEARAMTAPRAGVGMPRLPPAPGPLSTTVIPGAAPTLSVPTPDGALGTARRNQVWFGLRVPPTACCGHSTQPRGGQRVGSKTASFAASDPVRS

[10] = target: Protein kinase C delta type (Homo sapiens) (UniProt Q05655); assay: Inhibition of human PKCd using ERMRPRKRQGSVRRRV as substrate at 1 uM in presence of 32P-ATP by Hotspot assay relative to control; values are per cent of control
Chain of Protein kinase C delta type (Homo sapiens) (Q05655 whole entry, looked up): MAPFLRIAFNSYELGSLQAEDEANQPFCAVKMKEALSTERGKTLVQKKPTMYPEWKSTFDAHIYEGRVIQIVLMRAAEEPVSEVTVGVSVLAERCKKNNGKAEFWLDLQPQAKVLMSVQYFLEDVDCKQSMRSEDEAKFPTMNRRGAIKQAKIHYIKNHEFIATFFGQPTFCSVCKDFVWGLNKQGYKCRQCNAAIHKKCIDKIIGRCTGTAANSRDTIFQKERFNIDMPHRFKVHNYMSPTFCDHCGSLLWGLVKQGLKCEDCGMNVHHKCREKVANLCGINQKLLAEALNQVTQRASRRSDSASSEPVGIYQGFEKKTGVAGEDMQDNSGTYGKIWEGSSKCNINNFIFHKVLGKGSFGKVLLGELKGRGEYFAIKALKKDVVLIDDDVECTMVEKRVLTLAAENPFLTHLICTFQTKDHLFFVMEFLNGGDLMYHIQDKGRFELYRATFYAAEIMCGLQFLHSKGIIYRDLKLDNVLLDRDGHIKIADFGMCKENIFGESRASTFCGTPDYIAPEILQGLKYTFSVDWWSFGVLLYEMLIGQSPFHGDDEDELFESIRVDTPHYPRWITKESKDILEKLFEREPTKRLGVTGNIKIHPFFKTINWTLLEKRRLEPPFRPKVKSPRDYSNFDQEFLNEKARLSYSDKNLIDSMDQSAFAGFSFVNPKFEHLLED

[11] = target: Cyclin-dependent kinase 5/CDK5 activator 1 (Homo sapiens) (UniProt Q00535+Q15078); assay: Inhibition of human CDK5/p25 using RB Protein as substrate at 1 uM in presence of 32P-ATP by Hotspot assay relative to control; values are per cent of control
[12] = target: G protein-coupled receptor kinase 6 (Homo sapiens) (UniProt P43250); assay: Inhibition of human GRK6 using casein as substrate at 1 uM in presence of 32P-ATP by Hotspot assay relative to control; values are per cent of control
Chain of G protein-coupled receptor kinase 6 (Homo sapiens) (P43250 whole entry, looked up): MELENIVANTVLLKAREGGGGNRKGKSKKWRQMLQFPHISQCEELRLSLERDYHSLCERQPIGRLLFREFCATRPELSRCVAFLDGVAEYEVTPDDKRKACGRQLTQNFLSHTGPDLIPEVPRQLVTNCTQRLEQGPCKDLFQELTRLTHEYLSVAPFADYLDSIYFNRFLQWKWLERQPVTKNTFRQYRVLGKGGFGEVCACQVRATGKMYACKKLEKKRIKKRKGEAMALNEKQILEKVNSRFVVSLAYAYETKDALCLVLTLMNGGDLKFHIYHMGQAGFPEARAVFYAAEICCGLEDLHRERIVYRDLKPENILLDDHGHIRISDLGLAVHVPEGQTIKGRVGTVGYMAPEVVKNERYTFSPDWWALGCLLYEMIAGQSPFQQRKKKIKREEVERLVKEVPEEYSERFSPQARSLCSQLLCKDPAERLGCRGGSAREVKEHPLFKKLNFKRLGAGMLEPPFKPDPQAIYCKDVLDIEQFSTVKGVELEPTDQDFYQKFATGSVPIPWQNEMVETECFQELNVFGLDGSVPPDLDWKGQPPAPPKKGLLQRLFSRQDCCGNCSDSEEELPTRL

SMILES	residual activity [1]	residual activity [2]	residual activity [3]	residual activity [4]	residual activity [5]	residual activity [6]	residual activity [7]	residual activity [8]	residual activity [9]	residual activity [10]	residual activity [11]	residual activity [12]
Cc1cc(-c2cnc(N)c3c(-c4ccc5scnc5c4)csc23)n(C)n1	97.6%	87.6%	104%	47.4%	72.9%	93.5%	33.4%	93.8%	98.9%	60.4%	96.7%	91.9%
CNC(=O)c1ccc2c(c1)ncn2-c1ccc(CC(=O)OC(C)(C)C)cc1	85.4%	92.4%	99.6%	93.4%	108%	97.5%	101%	95.2%	97.9%	90.1%	93.1%	96.4%
CC(C)S(=O)(=O)c1ccc2nccc(Nc3ccc4scnc4c3)c2c1	98.8%	88.5%	94.5%	77.6%	106%	95.9%	95.4%	101%	103%	86.3%	99.9%	101%
